Target: KRasG12C (M1-K169, biotinylated on the N-terminus) (Homo sapiens (Human), UniProt P01116, G12C)
Experiment: Covalent competition assay: scintillation proximity assay (SPA) quantifying covalent modification of KRASG12C
Format: binding
Settings: competition with radiolabeled covalent probe (Compound B/Compound A), 2 hours incubation, 10 nM KRasG12C
Procedure: Cells were harvested by centrifugation and frozen at −80° C. until further processing. […] The cells were lysed by 4 passages through an Avestin Emulsiflex at about 20000 psi and insoluble debris removed by centrifugation and filtered through a 0.45 µm Durapore membrane (Millipore). […] Eluted protein fractions were analyzed by Novex NuPage 4-12% PAGE. […] The protein in the flow through was subjected to a final polishing step on a HiLoad 16/60 Superdex 200 prep grade size-exclusion column pre-equilibrated with SEC-buffer (20 mM HEPES pH 7.4, 150 mM NaCl, 5 mM MgCl2, 1 µM GDP). Positive fractions were determined by PAGE (Novex NuPage 4-12% BisTris) analysis.
A scintillation proximity assay (SPA) was used to determine the potency of the compounds.
This assay measures the ability of the test compound to compete with the radiolabeled covalent probe for binding to and covalently modify KRASG12C.
(see above for synthesis of Compound A and Compound B). A serial dilution of the compounds to be tested is mixed with a fixed concentration of the radiolabeled covalent probe before incubation with KRASG12C:GDP as described below. KRASG12C can either be bound by the radiolabeled covalent probe (Compound B), resulting in light being emitted from the beads, or bound by covalent test compound preventing signal generation.
A 1/20 isotopic dilution of labeled (Compound B) and non-labeled covalent (Compound A) probe was prepared and added to all wells on the plate. The reaction was started by addition of KRasG12C (M1-K169, biotinylated on the N-terminus) to the compounds and incubated for 2 hours with continuous agitation allowing for full modification of KRasG12C with probe or test compounds. Final concentrations in an assay volume of 40 μL were 10 nM KRasG12C, 25 nM radio-ligand and 475 nM unlabelled ligand. The assay buffer contained 20 mM Tris-HCl pH 7.5 (Invitrogen), 150 mM NaCl (Sigma Aldrich), 0.1 mM MgCl2 (Sigma Aldrich), and 0.01% Tween-20 (Sigma Aldrich). Following addition of 50 μL of a 400 μg/mL suspension of streptavidin-coated YSi beads (Perkin Elmer), plates were incubated for a further 30 min with continuous agitation before reading the plates on a scintillation counter (Topcount NXT 384 (Packard).
Evaluation was carried out using assay data analysis software (such as the standard Novartis in-house Helios software application, Novartis Institutes for BioMedical Research, unpublished) using the methods described in Formenko et al., Robust Regression for high-throughput screening, Computer Methods and Programs in Biomedicine, 2006, 82, 31-37. Following normalization of activity values for the wells to % inhibition (% inhibition=[(high control−sample)/(high control−low control)]×100), IC50 fitting was carried out from the duplicate determinations present on each plate according to Formenko et al., 2006.
Evaluation can also be carried out using commercially available software which is designed to derive IC50 values using 4-parameter fits (e.g. GraphPad Prism, XL fit).

| Structure (SMILES) | IC50 [nM] |
| --- | --- |
| C=CC(=O)N1CC2(CC(n3nc(N4CCN(C(C)=O)C5(CCC5)C4)c(-c4c(Cl)c(C)cc5[nH]ncc45)c3C)C2)C1 (single isomer, unassigned) [Example 20b, 1-(6-(3-(5-acetyl-5,8-diazaspiro[3.5]nonan-8-yl)-4-(5-chloro-6-methyl-1H-indazol-4-yl)-5-methyl-1H-pyrazol-1-yl)-2-azaspiro[3.3]heptan-2-yl)prop-2-en-1-one] | 38300 |
| C=CC(=O)N1CC2(CC(n3nc(N4CCN(C(C)=O)CC45CCC5)c(-c4c(Cl)c(C)cc5[nH]ncc45)c3C)C2)C1 (single isomer, unassigned) [Example 21a, 1-(6-(3-(8-acetyl-5,8-diazaspiro[3.5]nonan-5-yl)-4-(5-chloro-6-methyl-1H-indazol-4-yl)-5-methyl-1H-pyrazol-1-yl)-2-azaspiro[3.3]heptan-2-yl)prop-2-en-1-one] | 11100 |
| C=CC(=O)N1CC2(CC(n3nc(N4CCN(C(C)=O)CC45CCC5)c(-c4c(Cl)c(C)cc5[nH]ncc45)c3C)C2)C1 (single isomer, unassigned) [Example 21b, 1-(6-(3-(8-acetyl-5,8-diazaspiro[3.5]nonan-5-yl)-4-(5-chloro-6-methyl-1H-indazol-4-yl)-5-methyl-1H-pyrazol-1-yl)-2-azaspiro[3.3]heptan-2-yl)prop-2-en-1-one] | 17 |
| C=CC(=O)N1CC2(CC(n3nc(N4CCn5ccnc5C4(C)C)c(-c4c(Cl)c(C)cc5[nH]ncc45)c3C)C2)C1 (single isomer, unassigned) [Example 23a, 1-(6-(4-(5-chloro-6-methyl-1H-indazol-4-yl)-3-(8,8-dimethyl-5,6-dihydroimidazo[1,2-a]pyrazin-7(8H)-yl)-5-methyl-1H-pyrazol-1-yl)-2-azaspiro[3.3]heptan-2-yl)prop-2-en-1-one] | > 50000 |
| C=CC(=O)N1CC2(CC(n3nc(N4CCn5ccnc5C4(C)C)c(-c4c(Cl)c(C)cc5[nH]ncc45)c3C)C2)C1 (single isomer, unassigned) [Example 23b, 1-(6-(4-(5-chloro-6-methyl-1H-indazol-4-yl)-3-(8,8-dimethyl-5,6-dihydroimidazo[1,2-a]pyrazin-7(8H)-yl)-5-methyl-1H-pyrazol-1-yl)-2-azaspiro[3.3]heptan-2-yl)prop-2-en-1-one] | 634 |
| C=CC(=O)N1CC2(CC(n3nc(N4CCN(C(C)=O)CC4(C)C)c(-c4c(Cl)c(C)cc5[nH]ncc45)c3C3CC3)C2)C1 (single isomer, unassigned) [Example 24a, 1-(6-(3-(4-acetyl-2,2-dimethylpiperazin-1-yl)-4-(5-chloro-6-methyl-1H-indazol-4-yl)-5-cyclopropyl-1H-pyrazol-1-yl)-2-azaspiro[3.3]heptan-2-yl)prop-2-en-1-one] | > 50000 |
| C=CC(=O)N1CC2(CC(n3nc(N4CCN(C(C)=O)CC4(C)C)c(-c4c(Cl)c(C)cc5[nH]ncc45)c3C3CC3)C2)C1 (single isomer, unassigned) [Example 24b, 1-(6-(3-(4-acetyl-2,2-dimethylpiperazin-1-yl)-4-(5-chloro-6-methyl-1H-indazol-4-yl)-5-cyclopropyl-1H-pyrazol-1-yl)-2-azaspiro[3.3]heptan-2-yl)prop-2-en-1-one] | 167 |
| C=CC(=O)N1CC2(CC(n3nc(N4CCC5(CC4)CN(C(C)=O)CCO5)c(-c4c(Cl)c(C)cc5[nH]ncc45)c3C)C2)C1 (single isomer, unassigned) [Example 26a, 1-(6-(3-(4-acetyl-1-oxa-4,9-diazaspiro [5.5]undecan-9-yl)-4-(5-chloro-6-methyl-1H-indazol-4-yl)-5-methyl-1H-pyrazol-1-yl)-2-azaspiro[3.3]heptan-2-yl)prop-2-en-1-one] | 11500 |
| C=CC(=O)N1CC2(CC(n3nc(N4CCC5(CC4)CN(C(C)=O)CCO5)c(-c4c(Cl)c(C)cc5[nH]ncc45)c3C)C2)C1 (single isomer, unassigned) [Example 26b, 1-(6-(3-(4-acetyl-1-oxa-4,9-diazaspiro [5.5]undecan-9-yl)-4-(5-chloro-6-methyl-1H-indazol-4-yl)-5-methyl-1H-pyrazol-1-yl)-2-azaspiro[3.3]heptan-2-yl)prop-2-en-1-one] | 110 |
| C=CC(=O)N1CC2(CC(n3nc(N4CCC(C)(O)CC4(C)C)c(-c4c(Cl)c(C)cc5[nH]ncc45)c3C)C2)C1 (single isomer, unassigned) [Example 27a, 1-(6-(4-(5-chloro-6-methyl-1H-indazol-4-yl)-3-(4-hydroxy-2,2,4-trimethylpiperidin-1-yl)-5-methyl-1H-pyrazol-1-yl)-2-azaspiro[3.3]heptan-2-yl)prop-2-en-1-one] | 2700 |
| C=CC(=O)N1CC2(CC(n3nc(N4CCC(C)(O)CC4(C)C)c(-c4c(Cl)c(C)cc5[nH]ncc45)c3C)C2)C1 (single isomer, unassigned) [Example 27b, 1-(6-(4-(5-chloro-6-methyl-1H-indazol-4-yl)-3-(4-hydroxy-2,2,4-trimethylpiperidin-1-yl)-5-methyl-1H-pyrazol-1-yl)-2-azaspiro[3.3]heptan-2-yl)prop-2-en-1-one] | 24 |

Other lines, results leading:

| IC50 [nM] | Structure (SMILES) |
| --- | --- |
| > 50000 | C=CC(=O)N1CC2(CC(n3nc(N4CCOCC4(C)C)c(-c4c(Cl)c(C)cc5[nH]ncc45)c3C)C2)C1 (single isomer, unassigned) [Example 22a, 1-(6-(4-(5-chloro-6-methyl-1H-indazol-4-yl)-3-(3,3-dimethylmorpholino)-5-methyl-1H-pyrazol-1-yl)-2-azaspiro[3.3]heptan-2-yl)prop-2-en-1-one] |
| 113 | C=CC(=O)N1CC2(CC(n3nc(N4CCOCC4(C)C)c(-c4c(Cl)c(C)cc5[nH]ncc45)c3C)C2)C1 (single isomer, unassigned) [Example 22b, 1-(6-(4-(5-chloro-6-methyl-1H-indazol-4-yl)-3-(3,3-dimethylmorpholino)-5-methyl-1H-pyrazol-1-yl)-2-azaspiro[3.3]heptan-2-yl)prop-2-en-1-one] |
| 76 | C=CC(=O)N1CC2(CC(n3nc(N4CCC(C)(O)CC4(C)C)c(-c4c(Cl)c(C)cc5[nH]ncc45)c3C)C2)C1 (single isomer, unassigned) [Example 28a, 1-(6-(4-(5-chloro-6-methyl-1H-indazol-4-yl)-3-(4-hydroxy-2,2,4-trimethylpiperidin-1-yl)-5-methyl-1H-pyrazol-1-yl)-2-azaspiro[3.3]heptan-2-yl)prop-2-en-1-one] |
| 1300 | C=CC(=O)N1CC2(CC(n3nc(N4CCC(C)(O)CC4(C)C)c(-c4c(Cl)c(C)cc5[nH]ncc45)c3C)C2)C1 (single isomer, unassigned) [Example 28b, 1-(6-(4-(5-chloro-6-methyl-1H-indazol-4-yl)-3-(4-hydroxy-2,2,4-trimethylpiperidin-1-yl)-5-methyl-1H-pyrazol-1-yl)-2-azaspiro[3.3]heptan-2-yl)prop-2-en-1-one] |
| > 5000 | C=CC(=O)N1CC2(CC(n3nc(N4CCC(O)CC4(C)C)c(-c4c(Cl)c(C)cc5[nH]ncc45)c3C)C2)C1 (single isomer, unassigned) [Example 29a, 1-(6-(4-(5-chloro-6-methyl-1H-indazol-4-yl)-3-(4-hydroxy-2,2-dimethylpiperidin-1-yl)-5-methyl-1H-pyrazol-1-yl)-2-azaspiro[3.3]heptan-2-yl)prop-2-en-1-one] |
| 32 | C=CC(=O)N1CC2(CC(n3nc(N4CCC(O)CC4(C)C)c(-c4c(Cl)c(C)cc5[nH]ncc45)c3C)C2)C1 (single isomer, unassigned) [Example 29b, 1-(6-(4-(5-chloro-6-methyl-1H-indazol-4-yl)-3-(4-hydroxy-2,2-dimethylpiperidin-1-yl)-5-methyl-1H-pyrazol-1-yl)-2-azaspiro[3.3]heptan-2-yl)prop-2-en-1-one] |
| 514 | C=CC(=O)N1CC2(CC(n3nc(N4CCC(O)CC4(C)C)c(-c4c(Cl)c(C)cc5[nH]ncc45)c3C)C2)C1 (single isomer, unassigned) [Example 30a, 1-(6-(4-(5-chloro-6-methyl-1H-indazol-4-yl)-3-(4-hydroxy-2,2-dimethylpiperidin-1-yl)-5-methyl-1H-pyrazol-1-yl)-2-azaspiro[3.3]heptan-2-yl)prop-2-en-1-one] |
